# Literature values as cited in PubChem BioAssay AID1259410 (Chemical Carcinogenesis Research Information System (CCRIS), 2018).
# System: rodent tumor promotion studies, tumor incidence
# Assay: CCRIS tumor promotion studies
structure (smiles),measurement,setting,value
C[C@H](CCC(=O)O)[C@H]1CC[C@H]2[C@@H]3CC[C@@H]4C[C@H](O)CC[C@]4(C)[C@H]3C[C@H](O)[C@]12C,outcome,"Carcinogen: AZOXYMETHANE, 25843-45-2, Doses [Carcinogen]: 7.4 MG/KG BW/WK FOR 5 WK, Doses [Promoter]: 0, 0.3% OF CHOW PELLETS FOR 45 WK BEGINNING FROM START OF ADMINISTRATION OF CARCINOGEN (STUDY DURATION: 45 WK), Route [Carcinogen]: SUBCUTANEOUS, Route [Promoter]: ORAL, Species: RAT, Strain/Sex: WISTAR/MALE",colon: tumor
same,outcome,"Carcinogen: DIETHYLNITROSAMINE, 55-18-5, 2-(ACETYLAMINO)FLUORENE, 6292-55-3, Carcinogen: DIETHYLNITROSAMINE, 55-18-5, 2-(ACETYLAMINO)FLUORENE, 6292-55-3, Doses [Carcinogen]: 200 MG/KG DEN FOLLOWED 2 WK LATER BY 0.03% 2AAF IN DIET FOR 2 WK PLUS 2 ML/KG CCL4 IN THE MIDDLE OF TREATMENT, Doses [Promoter]: 0.5% IN DIET BEGINNING 1 WK POST CARCINOGEN TREATMENT AND CONTINUING FOR DURATION OF TREATMENT (STUDY DURATION: 35 WK), Route [Carcinogen]: INTRAPERITONEAL, ORAL, Route [Promoter]: ORAL, Species: RAT, Strain/Sex: WISTAR/MALE",liver: hepatocellular carcinoma or cholangiocarcinoma
same,outcome,"Carcinogen: DIETHYLNITROSAMINE, 55-18-5, 2-ACETYLAMINO-FLUORENE, 53-96-3, CARBON TETRACHLORIDE, 56-23-5, Carcinogen: DIETHYLNITROSAMINE, 55-18-5, 2-ACETYLAMINO-FLUORENE, 53-96-3, CARBON TETRACHLORIDE, 56-23-5, Doses [Carcinogen]: 200 NMOL DEN ONCE FOLLOWED 2 WK LATER BY 0.03% 2AAF IN DIET PLUS 2 ML/MG CC14 IN THE MIDDLE OF 2AAF TREATMENT OF 3 WK, Doses [Promoter]: 0, 0.5% IN DIET BEGINNING POST CARCINOGEN TREATMENT AND CONTINUING FOR 30 WK (STUDY DURATION: 35 WK), Route [Carcinogen]: INTRAPERITONEAL, ORAL, Route [Carcinogen]: INTRAPERITONEAL, ORAL, Route [Promoter]: ORAL, Species: RAT, Strain/Sex: WISTAR/MALE",liver: tumor
same,outcome,"Carcinogen: N-METHYL-N-AMYLNITROSAMINE, 13256-07-0, Doses [Carcinogen]: 0.003% IN DRINKING WATER FOR 8 WK FOLLOWED BY TAP WATER FOR 20 WK, Doses [Promoter]: 0, 0.2% IN DIET BEGINNING POST CARCINOGEN TREATMENT AND CONTINUING FOR 20 WK (STUDY DURATION: 28 WK), Route [Carcinogen]: ORAL, Route [Promoter]: ORAL, Species: RAT, Strain/Sex: WISTAR/MALE",esophagus: papilloma
same,outcome,"Carcinogen: N-METHYL-N-AMYLNITROSAMINE, 13256-07-0, Doses [Carcinogen]: 0.003% IN DRINKING WATER FOR 8 WK FOLLOWED BY TAP WATER FOR 20 WK, Doses [Promoter]: 0, 0.2% IN DIET FOR 8 WK SIMULTANEOUSLY WITH CARCINOGEN TREATMENT (STUDY DURATION: 28 WK), Route [Carcinogen]: ORAL, Route [Promoter]: ORAL, Species: RAT, Strain/Sex: WISTAR/MALE",esophagus: papilloma
same,outcome,"Carcinogen: N-METHYL-N-AMYLNITROSAMINE, 13256-07-0, Doses [Carcinogen]: 0.003% IN DRINKING WATER FOR 8 WK FOLLOWED BY TAP WATER FOR 20 WK, Doses [Promoter]: 0, 0.2% IN DIET FOR DURATION OF STUDY (STUDY DURATION: 28 WK), Route [Carcinogen]: ORAL, Route [Promoter]: ORAL, Species: RAT, Strain/Sex: WISTAR/MALE","esophagus: carcinoma, papilloma"
same,outcome,"Doses [Carcinogen]: IR, Route [Carcinogen]: RECTAL, Route [Promoter]: RECTAL, Species: RAT, Strain/Sex: FEMALE",colon
O=NO,outcome,"Carcinogen: 1,2-DIMETHYLHYDRAZINE [540-73-8], Doses [Carcinogen]: 8 MG/KG, Doses [Promoter]: 50, 500 MG, Route [Promoter]: INJECTION, Species: MOUSE, Strain/Sex: (C57B1 X CBA)/MALE","liver: hepatocarcinoma, hepatic hemangioendothelioma; kidney: renal adenoma; inc"
same,outcome,"Carcinogen: Diethyl nitrosamine (DEN), 55-18-5 and dimethylhydrazine (DMH), 30260-66-3, Carcinogen: Diethyl nitrosamine (DEN), 55-18-5 and dimethylhydrazine (DMH), 30260-66-3, Doses [Carcinogen]: DEN, 200 mg/kg once at -3 days, DMH, 40 mg/kg 4 injections between day 0 and wk 2, Doses [Promoter]: 0, 0.1, 0.2% in drinking water from week 2 to 29, study duration 29 wk, Doses [Promoter]: 0, 0.1, 0.2% in drinking water from week 2 to 29, study duration 29 wk, Route [Carcinogen]: Intraperitoneal (DEN) and subcutaneous (DMH), Route [Promoter]: Oral, Species: Rat, Strain/Sex: F344/Du Crj (20/group)",liver: hepatocellular adenoma and carcinoma. colon adenoma and carcinoma. incide
same,outcome,"Carcinogen: N-METHYL-N'-NITRO-N-NITROSOGUANIDINE, 70-25-7, Doses [Carcinogen]: 150 MG/KG BW IN DMSO:WATER (1:1) ONCE, Doses [Promoter]: 0, 0.3% IN DRINKING WATER BEGINNING 1 WK POST CARCINOGEN DOSE (STUDY DURATION: 52 WK), Route [Carcinogen]: GAVAGE, Route [Promoter]: ORAL, Species: RAT, Strain/Sex: F344/MALE","forestomach: papilloma, squamous cell carcinoma"
same,outcome,"Carcinogen: N-bis(2-hydroxypropyl)nitrosamine (DHPN) (53609-64-6), Doses [Carcinogen]: 0.1% (w/v) in drinking water for 3 wk, then surgery for acid reflux esophagitis, study duration 34 wk, Doses [Promoter]: 0 (basal diet), 0.2% sodium nitrite, 1% ascorbic acid with 0.2% sodium nitrite, study duration 32 wk after first promote, Doses [Promoter]: 0 (basal diet), 0.2% sodium nitrite, 1% ascorbic acid with 0.2% sodium nitrite, study duration 32 wk after first promote, Route [Carcinogen]: Oral, Route [Promoter]: Oral, Species: Rat, Strain/Sex: F344/Male (24/group)",esophagus (p1-p4): papilloma; significant only for combined treatment in p4 segm
same,outcome,"Carcinogen: N-methyl-N'-nitro-N-nitrosoguanidine (70-25-7), Doses [Carcinogen]: 0.01% in drinking water for 10 wk for initiation of glandular stomach tumors, 100 mg/kg intragastrically after 16 hr st, Doses [Promoter]: 0.05%, 0.1%, or 0.2% in drinking water from wk 11 to end of study in combination with 0.1% or 1.0% vitamin C in diet (, Route [Carcinogen]: Oral and Intragastric, Route [Promoter]: Oral, Species: Rat, Strain/Sex: F344/Male (15/15)/(14/15)(15/15)(15/15)(15/15)(15/15)(14/15)","forestomach: papilloma, squamous cell carcinoma increase in incidence and/or sev"
same,outcome,"Carcinogen: URETHANE, 51-79-6, Doses [Carcinogen]: 0.5 MG/G BW 1/WK FOR 2 WK, Doses [Promoter]: 0, 50 MG/L IN DRINKING WATER FOR THE DURATION OF STUDY BEGINNING 4 WK PRIOR TO CARCINOGEN TREATMENT (STUDY DURATION: 210, Route [Carcinogen]: INTRAPERITONEAL, Route [Promoter]: ORAL, Species: MOUSE, Strain/Sex: A/SNELL/FEMALE",lung: adenoma
same,outcome,"Carcinogen: URETHANE, 51-79-6, Doses [Carcinogen]: 0.5 MG/G BW 1/WK FOR 2 WK, Doses [Promoter]: 0, 50 MG/L IN DRINKING WATER FOR THE DURATION OF STUDY BEGINNING 4 WK PRIOR TO CARCINOGEN TREATMENT (STUDY DURATION: 210, Route [Carcinogen]: INTRAPERITONEAL, Route [Promoter]: ORAL, Species: MOUSE, Strain/Sex: C57BL X CBA/ FEMALE",lung: adenoma
same,outcome,"Carcinogen: URETHANE, 51-79-6, Doses [Carcinogen]: 0.5 MG/G BW/WK FOR 2 WK, Doses [Promoter]: 0, 50, 500 MG/L IN DRINKING WATER FOR THE DURATION OF STUDY BEGINNING 4 WK PRIOR TO CARCINOGEN TREATMENT (STUDY DURATION, Doses [Promoter]: 0, 50, 500 MG/L IN DRINKING WATER FOR THE DURATION OF STUDY BEGINNING 4 WK PRIOR TO CARCINOGEN TREATMENT (STUDY DURATION, Route [Carcinogen]: INTRAPERITONEAL, Route [Promoter]: ORAL, Species: MOUSE, Strain/Sex: A/SNELL",lung: adenoma
same,outcome,"Carcinogen: URETHANE, 51-79-6, Doses [Carcinogen]: 0.5 MG/G BW/WK FOR 2 WK, Doses [Promoter]: 0, 50, 500 MG/L IN DRINKING WATER FOR THE DURATION OF STUDY BEGINNING 4 WK PRIOR TO CARCINOGEN TREATMENT (STUDY DURATION, Doses [Promoter]: 0, 50, 500 MG/L IN DRINKING WATER FOR THE DURATION OF STUDY BEGINNING 4 WK PRIOR TO CARCINOGEN TREATMENT (STUDY DURATION, Route [Carcinogen]: INTRAPERITONEAL, Route [Promoter]: ORAL, Species: MOUSE, Strain/Sex: C57BLXCBA",lung: adenoma
Oc1c(Cl)c(Cl)c(O)c(Cl)c1Cl,outcome,"Carcinogen: 7,12-Dimethylbenzanthracene, 57-97-6, Doses [Carcinogen]: 100 ug in 100 ul acetone once at 7 wks of age, Doses [Promoter]: 100, 500 ug in 100 ul acetone 1 wk after carcinogen, 2 times a wk for 20 or 30 wks, Route [Carcinogen]: Dermal, Route [Promoter]: Dermal, Species: Mouse, Strain/Sex: CD-1/Female",skin: tumors (dihydrolipoic acid significantly inhibited tumor incidence and mul
O=C1NC(=O)C(c2ccccc2)(c2ccccc2)N1,outcome,"Carcinogen: N,N-DIETHYLNITROSAMINE, 55-18-5, Doses [Carcinogen]: 75 MG/KG IN SALINE ONCE AT 5 WK OF AGE, Doses [Promoter]: 0, 500, 1500 PPM IN DIET FOR 45 WK BEGINNING 2 WK POST CARCINOGEN TREATMENT (STUDY DURATION: 47 WK), Doses [Promoter]: 0, 500, 1500 PPM IN DIET FOR 45 WK BEGINNING 2 WK POST CARCINOGEN TREATMENT (STUDY DURATION: 47 WK), Route [Carcinogen]: INTRAPERITONEAL, Route [Promoter]: ORAL, Species: RAT, Strain/Sex: F344/MALE",liver: hepatocellular adenoma
same,outcome,"Carcinogen: N,N-DIETHYLNITROSAMINE, 55-18-5, Doses [Carcinogen]: 75 MG/KG IN SALINE ONCE AT 5 WK OF AGE, Doses [Promoter]: 0, 500, 1500 PPM IN DIET FOR 46-72 WK BEGINNING 2 WK POST CARCINOGEN TREATMENT (STUDY DURATION: 46-72 WK), Doses [Promoter]: 0, 500, 1500 PPM IN DIET FOR 46-72 WK BEGINNING 2 WK POST CARCINOGEN TREATMENT (STUDY DURATION: 46-72 WK), Route [Carcinogen]: INTRAPERITONEAL, Route [Promoter]: ORAL, Species: RAT, Strain/Sex: F344/MALE",liver: hepatocellular adenoma
same,outcome,"Carcinogen: N-NITROSODIETHYLAMINE, 55-18-5, Doses [Carcinogen]: 90 MG/KG BW IN TRICAPRYLIN ONCE, Doses [Promoter]: 0, 500 PPM IN DIET FOR 53 WK BEGINNING 2 WK POST CARCINOGEN DOSE (STUDY DURATION: 55 WK), Route [Carcinogen]: INTRAPERITONEAL, Route [Promoter]: ORAL, Species: MOUSE, Strain/Sex: D2B6F1/MALE",liver: tumor
